Test results taken from patent US10822319B2, “Crystal of DPP-IV long-acting inhibitor and salt” (priority 2016, dated 2020).
Where two headings read alike, the source gives them in different places. Values belong to the molecule of their own block, whether it stands above or below them.

Tests used:
[1] = Stability test of the crystal of the compound represented by Formula I; assay type: physicochemical
Text: Samples were taken on day 5 or day 10 and tested, respectively, and the results were compared with the initial results.

[2] = Pharmacokinetics in Beagle dogs; assay type: in vivo; conditions: 2 mg/kg (in free form), plasma; for MRT last: read-out: MRT(0−t); for bioavailability: relative to the compound represented by Formula I, read-out: Relative F %
Protocol: Male Beagle dogs were fasted for about 12 h prior to administration and had free access to water. The dogs were also fasted for 4 hours after administration. Blood samples (0.8 mL) were taken from the forelimb vein of the subject Beagle dogs at 0.25, 0.5, 1, 2, 4, 6, 8, 10, 24, 30, 48, and 72 h after administration. The samples were then placed in EDTA-K2 centrifuge tubes, stored at 4° C., and centrifuged for 10 min at a speed of 4000 rpm at 4° C. within 0.5 h after blood collection to separate plasma. The plasma was stored at […] within 1 h after collecting all the plasma.
300 μL of a solution of an internal standard substance in methanol was added to 50 μL of the plasma sample to be tested and a standard curve sample, respectively. The resulting mixture was mixed uniformly by shaking for 5 min, and centrifuged for 10 min at a speed of 13000 rpm. Then 80 μL of supernatant was taken, and 5 μL of the supernatant was pipetted for LC/MS/MS determination, and the chromatogram was recorded.

[3] = High Humidity (RH92.5%, 25° C.), Day 5
[4] = High Humidity (RH92.5%, 25° C.), Day 10
[5] = Light Irradiation (6000 lux), Day 5
[6] = Light Irradiation (6000 lux), Day 10
[7] = male Beagle dogs, crystalline form
[8] = male, Beagle, dog, po, 2 mg/kg, crystalline form
[9] = male, Beagle, dog, oral, 2 mg/kg, crystalline form

Content (%) ([1]; 40° C., Day 5): 99.6% | Total impurity (%) ([1]; 40° C., Day 5): 0.31% | Content (%) ([1]; 40° C., Day 10): 99.6% | Total impurity (%) ([1]; 40° C., Day 10): 0.37% | Content (%) ([1]; 60° C., Day 5): 100.2% | Total impurity (%) ([1]; 60° C., Day 5): 0.30% | Content (%) ([1]; 60° C., Day 10): 99.4% | Total impurity (%) ([1]; 60° C., Day 10): 0.33% | Content (%) ([1]; Day 0): 99.1% | Total impurity (%) ([1]; Day 0): 0.39% | Content (%) [1, 3]: 100.3% | Total impurity (%) [1, 3]: 0.27% | Content (%) [1, 4]: 99.9% | Total impurity (%) [1, 4]: 0.32% | Content (%) [1, 5]: 99.5% | Total impurity (%) [1, 5]: 0.33% | Content (%) [1, 6]: 99.3% | Total impurity (%) [1, 6]: 0.44% | Appearance ([1]; all conditions and days (Day 0, 40° C., 60° C., high humidity, light irradiation)): Off-white powdered solid
Structure (SMILES): CS(=O)(=O)c1ccc2c(c1)CN([C@H]1CO[C@H](c3cc(F)ccc3F)[C@@H](N)C1)C2 [(2R,3S,5R)-5-(5-methanesulfonylisoindolin-2-yl)-2-(2,5-difluorophenyl)tetrahydro-2H-pyran-3-amine]

AUC(0−t) [2, 7]: 22746 ng·h/mL | AUC(0−∞) [2, 7]: 23508 ng·h/mL | Cmax [2, 7]: 1746 ng/mL | MRT(0−t) [2, 7]: 17.9 h | Tmax [2, 7]: 0.67 h | t1/2 [2, 7]: 16.9 h
Structure (SMILES): CS(=O)(=O)c1ccc2c(c1)CN([C@H]1CO[C@H](c3cc(F)ccc3F)[C@@H](N)C1)C2 [The phosphate of the compound represented by Formula I] [Phosphate of (2R,3S,5R)-5-(5-methanesulfonylisoindolin-2-yl)-2-(2,5-difluorophenyl)tetrahydro-2H-pyran-3-amine]

AUC(0-inf) [2, 8]: 15800 ng·h/mL | AUC(0-t) [2, 8]: 15200 ng·h/mL | half-life [2, 8]: 16.4 h | Cmax ([2]; male, Beagle, dog, po, 2 mg/kg, crystalline form, read-out: Cmax): 926 ng/mL | MRT last [2, 8]: 20.6 h | Tmax ([2]; male, Beagle, dog, po, 2 mg/kg, crystalline form, read-out: Tmax): 6 h | bioavailability ([2]; male, Beagle, dog, po, 2 mg/kg): 100%
Structure (SMILES): CS(=O)(=O)c1ccc2c(c1)CN([C@H]1CO[C@H](c3cc(F)ccc3F)[C@@H](N)C1)C2 [The compound represented by Formula I, (2R,3S,5R)-5-(5-methanesulfonylisoindolin-2-yl)-2-(2,5-difluorophenyl)tetrahydro-2H-pyran-3-amine]

AUC(0-inf) [2, 9]: 20300 ng·h/mL | AUC(0-t) [2, 9]: 19500 ng·h/mL | half-life [2, 9]: 16.6 h | Cmax ([2]; male, Beagle, dog, oral, 2 mg/kg, crystalline form, read-out: Cmax): 1220 ng/mL | MRT last [2, 9]: 20.3 h | Tmax ([2]; male, Beagle, dog, oral, 2 mg/kg, crystalline form, read-out: Tmax): 0.75 h | bioavailability ([2]; male, Beagle, dog, oral, 2 mg/kg): 152%
Structure (SMILES): CS(=O)(=O)c1ccc2c(c1)CN([C@H]1CO[C@H](c3cc(F)ccc3F)[C@@H](N)C1)C2 [fumarate of (2R,3S,5R)-5-(5-methanesulfonylisoindolin-2-yl)-2-(2,5-difluorophenyl)tetrahydro-2H-pyran-3-amine]
